Measurements published in patent publication US10781472B2, “Systems and methods for determining cyclic nucleotide concentration and related pathway activation” (PROMEGA CORPORATION, priority 2005, dated 2020).

What was measured:
[1] = target: T1, Holoenzyme-R-II α protein kinase A (Homo sapiens, UniProt P13861); assay: Side by side titration of cAMP and cGMP for activation of PKA; type: biochemical; settings: FIG. 6
T1 construct: purchased BIAFFIN GmbH & Co., Kassel, Germany
Experimental: Two-fold serial dilutions of cAMP and cGMP (initial concentration of both 40 μM) were made in Stop Buffer without ATP and IBMX, but supplemented with 2 μM ATP. Twenty-five μl of the dilutions were aliquoted into white 96-well plates, followed by the addition of 25 μl of a PKA/substrate reagent containing 100 ng/well Holoenzyme-R-II α protein kinase A, 20 μM Kemptide, 40 mM Tris HCl pH 7.5, 20 mM MgCl2, and 0.1 mg/ml BSA. The reactions were allowed to incubate for 20 min. at room temperature, and 50 μl of Kinase-Glo™ Reagent was added followed by an additional 10 min. incubation. Luminescence was measured 10 min. after addition of the Kinase-Glo™ Reagent and output was recorded as RLUs (n=2) and plotted against cyclic nucleotide (cNMP) concentration using GraphPad Prism® Software Version 4.0.

[2] = target: dopamine receptor D1 (DRD1) (Homo sapiens, UniProt P21728); settings: 1 μg DRD1 plasma membranes, 15 min induction (FIG. 10)
Experimental: Plasma membranes (1 μg of protein in 25 μl of Stimulation Buffer) and 10 μM GDP were added to the wells of a 96-well plate and incubated at room temperature for 10 minutes. Twenty microliters of each compound dilution was added to specific wells. Induction was carried out for 15 minutes at room temperature followed by addition of 40 μl of PKA/Substrate Reagent. The reactions were allowed to incubate for an additional 20 minutes at room temperature followed by addition of 80 μl of Kinase-Glo™ Reagent. Luminescence was read 10 minutes after addition of the Kinase-Glo™ Reagent and output was recorded as relative light units (RLU) and plotted against forskolin concentration using GraphPad Prism® Software Version 4.0.

phosphodiesterase PDE V = phosphodiesterase PDE V (Homo sapiens, UniProt O76074); assay: cGMP-PDE (PDE V) activity in the presence of inhibitor, PKA/Kinase-Glo luminescence; type: biochemical; settings: 15 U PDE V, cGMP substrate, 30 min (FIG. 7B)
Experimental: A two-fold serial dilution of Zaprinast (20 μM) was made in Stop Buffer without IBMX and ATP, supplemented with 10 μM cGMP. An enzyme solution containing PDE V was also made so that every 12.5 μl of the enzyme solution contained 15 U (Stop Buffer without IBMX and ATP) of the enzyme. An aliquot (12.5 μl) of each dilution was added to the reaction wells and an equal amount of the phosphodiesterase PDEV enzyme solution was added to start the reaction. The plate was incubated for 30 min. at room temperature, followed by addition of 12.5 μl of Stop Buffer supplemented with 1.5 mM IBMX and 4 μM ATP to stop the reaction. An equal volume of a PKA/substrate reagent containing 100 ng/well Holoenzyme-R-II α protein kinase A, 40 μM Kemptide, 40 mM Tris HCl pH 7.5, 20 mM MgCl2, and 0.1 mg/ml BSA was added to each well, the plate was incubated for an additional 20 min., and 50 μl of Kinase-Glo™ Reagent was added.

Chain of dopamine receptor D1 (DRD1) (P21728 whole entry): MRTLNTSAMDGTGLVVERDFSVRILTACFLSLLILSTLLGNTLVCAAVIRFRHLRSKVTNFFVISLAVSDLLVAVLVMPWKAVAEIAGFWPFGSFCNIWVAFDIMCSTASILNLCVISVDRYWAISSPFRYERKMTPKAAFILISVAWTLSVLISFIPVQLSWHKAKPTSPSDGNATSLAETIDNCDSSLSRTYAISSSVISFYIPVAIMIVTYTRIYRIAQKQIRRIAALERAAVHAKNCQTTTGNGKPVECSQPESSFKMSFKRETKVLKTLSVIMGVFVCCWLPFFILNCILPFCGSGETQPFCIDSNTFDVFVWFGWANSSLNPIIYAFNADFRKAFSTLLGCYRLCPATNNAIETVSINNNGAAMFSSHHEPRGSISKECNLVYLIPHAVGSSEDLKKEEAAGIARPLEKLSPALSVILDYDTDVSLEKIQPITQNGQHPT
T1 sequence (P13861 whole entry): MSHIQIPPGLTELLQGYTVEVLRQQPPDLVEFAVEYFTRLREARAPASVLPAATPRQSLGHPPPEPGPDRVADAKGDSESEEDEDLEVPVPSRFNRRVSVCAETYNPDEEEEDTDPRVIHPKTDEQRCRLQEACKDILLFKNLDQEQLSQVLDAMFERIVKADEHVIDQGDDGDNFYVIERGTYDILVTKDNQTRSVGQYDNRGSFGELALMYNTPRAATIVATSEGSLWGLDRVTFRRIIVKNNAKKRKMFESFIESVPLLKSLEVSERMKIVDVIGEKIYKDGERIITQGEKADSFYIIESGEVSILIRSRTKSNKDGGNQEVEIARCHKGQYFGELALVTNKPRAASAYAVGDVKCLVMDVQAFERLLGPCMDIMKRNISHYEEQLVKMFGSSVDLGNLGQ

Nc1nc2c(ncn2[C@@H]2O[C@@H]3COP(=O)(O)O[C@H]3[C@H]2O)c(=O)[nH]1 [cGMP, guanosine 3′, 5′cyclic monophosphate]
binding to regulatory subunits of PKA, affinity relative to cAMP [1]: lower affinity than that of cAMP

Oc1cc2c(cc1O)C(c1ccccc1)CNCC2 (stereo not drawn) [SKF38393, 1-Phenyl-2,3,4,5-tetrahydro-(1H)-3-benzazepine-7,8-diol]
luminescent signal as agonist concentration increases (DRD1 activation) [2]: luminescent signal decreases

CCCOc1ccccc1-c1nc2nn[nH]c2c(=O)[nH]1 [Zaprinast]
relative light units as inhibitor amount increases (PDE V inhibition) (phosphodiesterase PDE V): relative light units decrease
